From ChEMBL document CHEMBL5620345, “Metal binding pharmacophore click-derived discovery of new broad-spectrum metallo-β-lactamase inhibitors” (Eur J Med Chem, 2023)

How the values were obtained:
[1] = Inhibition of recombinant NDM1 (unknown origin) expressed in Escherichia coli (DE3) cells using FC5 as substrate by microplate reader assay
[2] = Inhibition of recombinant VIM-1 (unknown origin) expressed in Escherichia coli (DE3) cells using FC5 as substrate by microplate reader assay
[3] = Inhibition of recombinant his tagged IMP1 (unknown origin) expressed in Escherichia coli (DE3) cells using FC5 as substrate by microplate reader assay
[4] = Inhibition of recombinant VIM-5 (unknown origin) expressed in Escherichia coli (DE3) cells using FC5 as substrate by microplate reader assay
[5] = Inhibition of recombinant his tagged VIM-2 (unknown origin) expressed in Escherichia coli (DE3) cells using FC5 as substrate by microplate reader assay
Escherichia coli [6] = experiment: Antibacterial activity against Escherichia coli BAA2452 expressing blaNDM-1 clinical isolates assessed as meropenem MIC incubated for 16 to 18 hrs by broth microdilution method; type: functional; settings: time 16-18 hrs; further: test concentration or dose not given here
Escherichia coli [7] = experiment: Antibacterial activity against Escherichia coli C1580 expressing blaIMP-1 clinical isolates assessed as meropenem MIC incubated for 16 to 18 hrs by broth microdilution method; type: functional; settings: time 16-18 hrs; further: test concentration or dose not given here
Klebsiella pneumoniae [8] = experiment: Antibacterial activity against Klebsiella pneumoniae BAA2470 expressing blaNDM-1 clinical isolates assessed as meropenem MIC incubated for 16 to 18 hrs by broth microdilution method; type: functional; settings: time 16-18 hrs; further: test concentration or dose not given here
Escherichia coli [9] = experiment: Antibacterial activity against Escherichia coli C1580 expressing blaIMP-1 clinical isolates assessed as fold potentiation incubated for 16 to 18 hrs by broth microdilution method; type: functional; settings: time 16-18 hrs; further: test concentration or dose not given here
Enterobacterales [10] = experiment: Antibacterial activity against Carbapenem-Resistant Enterobacterales 19 expressing blaNDM-1 clinical isolates assessed as meropenem MIC incubated for 16 to 18 hrs by broth microdilution method; type: functional; settings: time 16-18 hrs; further: test concentration or dose not given here
Klebsiella pneumoniae [11] = experiment: Antibacterial activity against Klebsiella pneumoniae BAA2470 expressing blaNDM-1 clinical isolates assessed as fold potentiation incubated for 16 to 18 hrs by broth microdilution method; type: functional; settings: time 16-18 hrs; further: test concentration or dose not given here
Escherichia coli [12] = experiment: Antibacterial activity against Escherichia coli BAA2452 expressing blaNDM-1 clinical isolates assessed as fold potentiation incubated for 16 to 18 hrs by broth microdilution method; type: functional; settings: time 16-18 hrs; further: test concentration or dose not given here
Enterobacterales [13] = experiment: Antibacterial activity against Carbapenem-Resistant Enterobacterales 19 expressing blaNDM-1 clinical isolates assessed as fold potentiation incubated for 16 to 18 hrs by broth microdilution method; type: functional; settings: time 16-18 hrs; further: test concentration or dose not given here
Escherichia coli [14] = experiment: Antibacterial activity against Escherichia coli C1541 expressing blaVIM-2 clinical isolates assessed as meropenem MIC incubated for 16 to 18 hrs by broth microdilution method; type: functional; settings: time 16-18 hrs; further: test concentration or dose not given here

Compound	IC50 [1]	IC50 [2]	IC50 [3]	IC50 [4]	IC50 [5]	MIC (Escherichia coli [6])	MIC (Escherichia coli [7])	MIC (Klebsiella pneumoniae [8])	fold change (FC) (Escherichia coli [9])	MIC (Enterobacterales [10])	fold change (FC) (Klebsiella pneumoniae [11])	fold change (FC) (Escherichia coli [12])	fold change (FC) (Enterobacterales [13])	MIC (Escherichia coli [14])
NCC(=O)Nc1cccc(-c2cn(-c3cccc(CP(=O)(O)O)c3)nn2)c1	19.3 µM	1.82 µM	24.1 µM	0.086 µM	0.29 µM									
Cc1ccc(-c2ccc(C(c3cccc(-n4cc(-c5cccc(N)c5)nn4)c3)P(=O)(O)O)cc2)cc1 (centres undefined)	0.59 µM	0.66 µM	0.43 µM	0.002 µM	0.00066 µM	16 µg/mL	2 µg/mL	64 µg/mL	16	8 µg/mL	>2	8	8	
Cc1ccc(-c2cn(-c3cccc(CP(=O)(O)O)c3)nn2)cc1	24.6 µM	5.48 µM	4.4 µM	0.045 µM	0.77 µM									
O=P(O)(O)Cc1ccc(-n2cc(-c3cccc(Cl)c3)nn2)cc1	> 100 µM	8.99 µM	> 100 µM	2.03 µM	2.44 µM									
O=C(NCc1cccc(-c2cn(-c3cccc(CP(=O)(O)O)c3)nn2)c1)C(F)(F)F	58.4 µM	12.3 µM	6.54 µM	0.11 µM	1.98 µM									
NCc1cn(-c2ccccc2CP(=O)(O)O)nn1	> 100 µM	> 100 µM	> 100 µM	> 100 µM	> 100 µM									
Nc1ccc(-c2cn(-c3cccc(CP(=O)(O)O)c3)nn2)cc1	15.1 µM	5.84 µM	3.24 µM	0.28 µM	0.17 µM									
OB(O)c1cccc(-c2cn(Cc3ccccc3)nn2)c1	36.3 µM	> 100 µM	> 100 µM	14.6 µM	64.2 µM									
CCCCc1cn(-c2cccc(CP(=O)(O)O)c2)nn1	> 100 µM	16.5 µM	12.3 µM	1.73 µM	2.23 µM									
O=P(O)(O)Cc1ccccc1-n1cc(-c2cccc(Cl)c2)nn1	> 100 µM	6.29 µM	80.4 µM	1.49 µM	0.88 µM									
O=P(O)(O)Cc1cccc(-n2cc(CNc3ccccc3)nn2)c1	2.84 µM	3.77 µM	0.78 µM	0.64 µM	0.84 µM									
O=P(O)(O)Cc1cccc(-n2cc(-c3ccc(F)cc3)nn2)c1	24.3 µM	9.64 µM	2.17 µM	0.063 µM	0.29 µM									
COc1ccc(-c2cn(-c3cccc(CP(=O)(O)O)c3)nn2)cc1	7.63 µM	4.26 µM	6.41 µM	0.043 µM	0.17 µM									
CC(C)(C)OC(=O)NCCn1cc(-c2cccc(B(O)O)c2)nn1	> 100 µM	> 100 µM	> 100 µM	> 100 µM	52.4 µM									
COc1cccc(-c2cn(-c3cccc(CP(=O)(O)O)c3)nn2)c1	60 µM	8.74 µM	12.2 µM	0.093 µM	0.83 µM									
O=C(CCn1cc(-c2cccc(B(O)O)c2)nn1)Nc1ccccc1	> 100 µM	> 100 µM	> 100 µM	6.36 µM	34.3 µM									
O=[N+]([O-])c1ccc(Cn2cc(-c3cccc(B(O)O)c3)nn2)cc1	48 µM	> 100 µM	> 100 µM	81.1 µM	9.76 µM	64 µg/mL	16 µg/mL	> 128 µg/mL	2	32 µg/mL		2	2	64 µg/mL
O=P(O)(O)Cc1ccc(-n2cc(CNc3ccccc3)nn2)cc1	> 100 µM	26.7 µM	> 100 µM	7.43 µM	13.3 µM									
NCc1cn(-c2cccc(C(=O)O)c2C(=O)O)nn1	> 100 µM	> 100 µM	81.5 µM	> 100 µM	> 100 µM									
OB(O)c1cccc(-c2cn(-c3cccc(Cl)c3)nn2)c1	29.1 µM	> 100 µM	> 100 µM	14.7 µM	24.2 µM									
O=C(CCn1cc(-c2cccc(B(O)O)c2)nn1)Nc1cccc(Cl)c1	68.2 µM	> 100 µM	> 100 µM	48.7 µM	30.5 µM									
NCc1cccc(-c2cn(-c3ccccc3CP(=O)(O)O)nn2)c1	> 100 µM	21.7 µM	> 100 µM	1.4 µM	4.92 µM									

Compound	IC50 [1]	IC50 [2]	IC50 [3]	IC50 [4]	IC50 [5]	MIC (Escherichia coli [6])	MIC (Escherichia coli [7])	MIC (Klebsiella pneumoniae [8])	fold change (FC) (Escherichia coli [9])	MIC (Enterobacterales [10])	fold change (FC) (Klebsiella pneumoniae [11])	fold change (FC) (Escherichia coli [12])	fold change (FC) (Enterobacterales [13])	MIC (Escherichia coli [14])
CCCCc1cn(-c2ccccc2CP(=O)(O)O)nn1	> 100 µM	13.8 µM	> 100 µM	32.2 µM	5.34 µM									
Nc1cccc(-c2cn(-c3ccccc3CP(=O)(O)O)nn2)c1	94.9 µM	27.2 µM	> 100 µM	0.38 µM	1.11 µM									
Nc1cccc(-n2cc(-c3cccc(B(O)O)c3)nn2)c1	50.4 µM	> 100 µM	> 100 µM	> 100 µM	18.4 µM									
Cc1cccc(-c2cn(-c3ccc(CP(=O)(O)O)cc3)nn2)c1	65.5 µM	11.8 µM	> 100 µM	1.16 µM	2.03 µM									
O=P(O)(O)Cc1cccc(-n2cc(-c3ccc(Cl)cc3)nn2)c1	40.2 µM	7.12 µM	8.34 µM	0.18 µM	0.44 µM									
O=C(O)c1cccc(-n2cc(CCO)nn2)c1C(=O)O	> 100 µM	> 100 µM	40.7 µM	> 100 µM	> 100 µM									
CC(C)(C)c1cn(-c2cccc(CP(=O)(O)O)c2)nn1	27.1 µM	24.6 µM	9.5 µM	0.52 µM	4.44 µM									
O=P(O)(O)Cc1cccc(-n2cc(-c3cccc(Br)c3)nn2)c1	24.2 µM	4.97 µM	11.3 µM	0.016 µM	0.66 µM									
OCCn1cc(-c2cccc(B(O)O)c2)nn1	> 100 µM	> 100 µM	> 100 µM	> 100 µM	> 100 µM									
Cc1cccc(-c2cn(-c3ccccc3CP(=O)(O)O)nn2)c1	> 100 µM	6.57 µM	> 100 µM	1.89 µM	3.37 µM									
NCc1cccc(-c2cn(-c3cccc(CP(=O)(O)O)c3)nn2)c1	42.5 µM	7.75 µM	37.1 µM	0.28 µM	2.56 µM									
NCCOc1ccc(-c2cn(-c3cccc(C(=O)O)c3C(=O)O)nn2)cc1	> 100 µM	> 100 µM	1.83 µM	> 100 µM	3.69 µM	64 µg/mL	0.25 µg/mL	> 128 µg/mL	128	64 µg/mL		2	1	32 µg/mL
O=C(NCc1cn(-c2ccc(CP(=O)(O)O)cc2)nn1)C(F)(F)F	> 100 µM	27.9 µM	> 100 µM	31.8 µM	27.2 µM									
O=C(NCc1cn(-c2cccc(CP(=O)(O)O)c2)nn1)C(F)(F)F	73.7 µM	33.7 µM	54.6 µM	0.028 µM	2.22 µM									
O=P(O)(O)Cc1cccc(-n2cc(-c3ccccc3F)nn2)c1	25.9 µM	9.79 µM	8.49 µM	0.1 µM	0.65 µM									
Nc1ccccc1-c1cn(-c2ccc(CP(=O)(O)O)cc2)nn1	16.6 µM	22.1 µM	> 100 µM	2.28 µM	2.48 µM									
O=P(O)(O)Cc1cccc(-n2cc(-c3cccc(Cl)c3)nn2)c1	> 100 µM	6.85 µM	7.17 µM	0.031 µM	0.24 µM									
O=P(O)(O)Cc1ccccc1-n1cc(CNc2ccccc2)nn1	82.8 µM	46 µM	> 100 µM	14.9 µM	4.16 µM									
NCc1cn(-c2cccc(CP(=O)(O)O)c2)nn1	> 100 µM	23.9 µM	> 100 µM	14.5 µM	2.69 µM									
O=P(O)(O)Cc1cccc(-n2cc(-c3cccc(F)c3)nn2)c1	34.7 µM	6.67 µM	6.74 µM	0.08 µM	0.97 µM									
O=C(O)c1cn(-c2cccc(C(=O)O)c2C(=O)O)nn1	> 100 µM	> 100 µM	29.2 µM	93.6 µM	55.3 µM									
